What is called IC50 is the concentration needed to halve the response being measured.

Entries after “also recorded” stand apart in the source; their conditions may differ.

Data set [1] can be described thus: DPPH radical scavenging assay. The following applies: for SC50: concentration required for 50% reduction of DPPH radicals, 37 °C, 30 min, 517 nm, nc = SC50 cannot be calculated due to weak or no related activities; for antioxidant activity on DPPH radical scavenging (in words): compared with positive control ascorbic acid. As to the method: The 2, 2-diphenyl-1-picrylhydrazyl (Aldrich Chem. Co. Ltd, Shanghai, China) radical scavenging activity assay was performed according to the previously published method with some modification. Test samples were dissolved in MeOH to six different concentrations ranging from 3.125 to 100 μM. Then, 100 μL of 100 μM DPPH in MeOH were mixed with 100 μL of samples at different concentrations in the wells of 96-well plates. The reaction mixtures were incubated in the dark at 37 °C for 30 min and then measured at 517 nm. Ascorbic acid was used as the positive control. The scavenging activity (SC) was estimated as follows: % SC = [1 − (Asample − Ablank)/Acontrol] ×100. Asample was the equivalent mixture of test sample and DPPH solution. Ablank was the equivalent mixture of test sample and MeOH solution. Acontrol was the equivalent mixture of DPPH and MeOH solution. The SC50 values were used to evaluate the antioxidant activities of isolated compounds. The experiments were performed in triplicate, and the data were expressed as the means ± SD of three independent experiments.

Data set [2] deals with NO production in LPS-activated RAW 264.7 cells. Put plainly: Inhibition of NO production in LPS-activated RAW 264.7 cells (Griess reaction). It is filed as cell-based. The note with it: Mus musculus, RAW264.7; RAW 264.7, 1 μg/mL LPS, 24 h; mean ± SD (n = 3); read-out: IC50 (NO inhibitory activity). The method, then:
The macrophage RAW 264.7 cells were obtained from the Cell Bank of the Chinese Academy of Sciences (Shanghai, China). A total of 180 μL of RAW 264.7 cells (1 × 10^4) were plated respectively in each well of 96-well plate and cultured for 24 h, then the supernatant of the culture was discarded and 180 μL complete medium with 1 μg/mL LPS and different concentrations of test samples were added into triplicate wells for 24 h. The inhibition effects on LPS-stimulated NO production was evaluated by the Griess reaction assay. The experiments were performed in triplicate, and the data were expressed as the means ± SD of three independent experiments.
In general terms: The Griess reaction detects nitrite, a stable product of nitric oxide.

The test system of a further data set is A549. Put plainly: Cytotoxic assay (CCK-8), A549. It is filed as cell-based, human. The following applies: Homo sapiens, A549, 48 h, mean ± SD (n = 3). The method, then:
(§1) Four human cancer cell lines, A549, NCI-H292, SiHa and MKN45, were purchased from the Cell Bank of the Chinese Academy of Sciences (Shanghai, China). […] Cisplatin (Abmole Bioscience, Shanghai, China) was used as positive control.
(§2) A total of 180 μL of cancer cells (5 × 10^3) were plated in each well of 96-well plates and cultured for 24 h, then the supernatant of the culture was discarded and 180 μL complete medium with different concentrations of test samples were added into triplicate wells of each cell line, respectively. Thereafter, A549, NCI-H292, SiHa and MKN45 were incubated for 48 h, respectively. The cell viability was evaluated by Cell Counting Kit-8 (CCK-8, Best Bio., Beijing, China), respectively. The experiments were performed in triplicate, and the data were expressed as the means ± SD of three independent experiments.

In another data set the test system is NCI-H292. Description: Cytotoxic assay (CCK-8), NCI-H292. The following applies: Homo sapiens, NCI-H292, 48 h, mean ± SD (n = 3). In kind it is cell-based, human. The method, then: as §1, §2
For a further data set, the system named is SiHa. Put plainly: Cytotoxic assay (CCK-8), SiHa. In kind it is cell-based, human. The following applies: Homo sapiens, 48 h, mean ± SD (n = 3). As to the method:
as §1, §2

Another data set concerns MKN45. Description: Cytotoxic assay (CCK-8), MKN45. It is filed as cell-based, human. The note with it: Homo sapiens, MKN-45, MKN45, 48 h, mean ± SD (n = 3). As to the method: as §1, §2
Data set [3] concerns LPS-induced acute lung injury. Details: method as in PMID 34417573, PMID 34038447. The note with it: mice; cited from earlier work.
Data set [4] in a line: Cytotoxicity in RAW 264.7 cells (CCK-8). The following applies: mouse.
Protocol: The cell viability was determined by the CCK-8 assay method. The cytotoxicity was calculated from the plotted results using untreated cells at 100%.

Turning to `CCOC(=O)/C=C/c1ccc(O)c(OC)c1` [Compound 21, 3-O-ethyl ferulate], the SC50 in data set [1] is 50.8 ± 1.4 µM. Also, the IC50 in data set [2] was 28.6 ± 3 µM; in the data set with A549, more than 200 µM; in the data set on NCI-H292, more than 200 µM; in the data set with SiHa, more than 200 µM; in the data set with MKN45, more than 200 µM; in [4], more than 200 µM. For the same compound, the “anti-inflammatory effects against LPS-induced acute lung injury” value in [3] is given as “obvious anti-inflammatory effects”.
As to `COc1cc(C(O)C(CO)Oc2c(OC)cc(C(O)C(O)CO)cc2OC)ccc1O` (stereo not drawn) [Compound 17, (erythro, erythro)-1-[4-[2-hydroxy-2-(4-hydroxy-3-methoxy-phenyl)-1-(hydroxymethyl)ethoxy]-3,5-dimethoxyphenyl]-1,2,3-propanetriol], the “antioxidant activity on DPPH radical scavenging (in words)” value (“antioxidant activity” for short) in data set [1] was “moderate activity”. The 50% inhibitory concentration (IC50) (in data set [2]; in the data set on A549; in the data set with NCI-H292; in the data set on SiHa; in the data set on MKN45; in data set [4]) was more than 200 µM in each case.
Consider scopolin [Compound 27], for which the IC50 in the data set on RAW 264.7 cells is more than 200 µM.
Turning to `COc1cc(C(O)C(CO)Oc2ccc(C(O)C(O)CO)cc2OC)ccc1O` (stereo not drawn) [Compound 18, 1-(4-hydroxy-3-methoxy)-phenyl-2-[4-(1,2,3-trihydroxypropyl)-2-methoxy]-phenoxy-1,3-propan-diol], the “antioxidant activity” value in data set [1] is “weak antioxidant activities; also recorded: moderate activity”. Moreover, the SC50 in [1] was 127.9 ± 15.4 µM. Moreover, the IC50 (in data set [2]; in the data set on A549; in the data set on NCI-H292; in the data set on SiHa; with MKN45; in [4]) was more than 200 µM throughout.
On to `OCCc1cc(O)cc(O[C@@H]2O[C@H](CO)[C@@H](O)[C@H](O)[C@H]2O)c1` [Compound 7, 3,5-dihydroxyphenethyl alcohol 3-O-β-D-glucopyranoside], for which the “antioxidant activity” value in [1] was “weak antioxidant activities; also recorded: weak activity”. In addition, in [1], the SC50 is 255.2 ± 12.6 µM. Also, the IC50 (in [2]; in the data set on A549; with NCI-H292; in the data set on SiHa; with MKN45; in data set [4]) was more than 200 µM in each case.
For `COc1cc(C2OCC3C(c4cc(OC)c(OC5OC(CO)C(O)C(O)C5O)c(OC)c4)OCC23)cc(OC)c1O` [Compound 11, syringaresinol-4′-O-β-D-glucopyranoside], the SC50 in data set [1] is 16.2 ± 1.6 µM. For the same compound, the IC50 (in data set [2]; with A549; in the data set with NCI-H292; with SiHa; in the data set with MKN45; in [4]) was more than 200 µM in each case.
As to `COc1cc(C2OCC3C(c4ccc(OC5OC(CO)C(O)C(O)C5O)c(OC)c4)OCC23)ccc1O` [Compound 10, pinoresinol-4-O-D-glucoside], the SC50 in [1] was 30.5 ± 6.5 µM. Moreover, the IC50 (in data set [2]; in the data set with A549; in the data set on NCI-H292; in the data set on SiHa; with MKN45; in data set [4]) was more than 200 µM in each case.
For the compound `COc1cc([C@@H]2OC[C@@H](Cc3ccc(O[C@@H]4O[C@H](CO)[C@@H](O)[C@H](O)[C@H]4O)c(OC)c3)[C@H]2CO)ccc1O` [Compound 19, lariciresinol-4-O-β-D-glucoside], the “antioxidant activity” value in data set [1] is listed as “significant scavenging activity”. The SC50 in data set [1] is 48.8 ± 2.9 µM. For the same compound, the IC50 (in data set [2]; in the data set with A549; with NCI-H292; in the data set on SiHa; in the data set with MKN45; in data set [4]) was more than 200 µM throughout.
